The record followed here is PubChem BioAssay AID1259407 (Chemical Carcinogenesis Research Information System (CCRIS), 2018).

This data set relates to CCRIS mutagenicity, Ames/micronucleus/aberration tests. Kind of data set: CCRIS mutagenicity studies.
The mark [1] stands for this setting: Test System: AMES SALMONELLA TYPHIMURIUM, Strain/Indicator: TA100, Metabolic Activation: NONE, Method: STANDARD PLATE.
Where [2] appears, read: Test System: AMES SALMONELLA TYPHIMURIUM, Strain/Indicator: TA100, Metabolic Activation: RAT, LIVER, S-9, AROCLOR 1254, Method: STANDARD PLATE.
Setting [3] is: Test System: AMES SALMONELLA TYPHIMURIUM, Strain/Indicator: TA1535, Metabolic Activation: NONE, Method: STANDARD PLATE.
The mark [4] stands for this setting: Test System: AMES SALMONELLA TYPHIMURIUM, Strain/Indicator: TA1535, Metabolic Activation: RAT, LIVER, S-9, AROCLOR 1254, Method: STANDARD PLATE.
Where [5] appears, read: Test System: AMES SALMONELLA TYPHIMURIUM, Strain/Indicator: TA98, Metabolic Activation: NONE, Method: PREINCUBATION
[6] abbreviates: Test System: AMES SALMONELLA TYPHIMURIUM, Strain/Indicator: TA100, Metabolic Activation: NONE, Method: PREINCUBATION
The mark [7] stands for this setting: Test System: AMES SALMONELLA TYPHIMURIUM, Strain/Indicator: TA102, Metabolic Activation: NONE, Method: PREINCUBATION

Activity calls are given as the source filed them. No rule for the calls is given here.

In the case of `CC(C)NCC(O)c1ccc2ccccc2c1` (stereo unspecified), the mutagenic call reads like this: (Test System: AMES SALMONELLA TYPHIMURIUM, Strain/Indicator: TA98, Metabolic Activation: NONE) “inactive; negative”; (Test System: AMES SALMONELLA TYPHIMURIUM, Strain/Indicator: TA98, Metabolic Activation: RAT, LIVER, S-9, AROCLOR 1254) “inactive; negative”; (Test System: AMES SALMONELLA TYPHIMURIUM, Strain/Indicator: TA100, Metabolic Activation: NONE) “inactive; negative”; (Test System: AMES SALMONELLA TYPHIMURIUM, Strain/Indicator: TA100, Metabolic Activation: RAT, LIVER, S-9, AROCLOR 1254) “inactive; negative”; (Test System: AMES SALMONELLA TYPHIMURIUM, Strain/Indicator: TA1535, Metabolic Activation: NONE) “inactive; negative”; (Test System: AMES SALMONELLA TYPHIMURIUM, Strain/Indicator: TA1535, Metabolic Activation: RAT, LIVER, S-9, AROCLOR 1254) “inactive; negative”. Also, the mutagenic call was “inactive; negative” (Test System: AMES SALMONELLA TYPHIMURIUM, Strain/Indicator: TA1537, Metabolic Activation: NONE) and “inactive; negative” (Test System: AMES SALMONELLA TYPHIMURIUM, Strain/Indicator: TA1537, Metabolic Activation: RAT, LIVER, S-9, AROCLOR 1254).
As for `CCOCC1CO1` (stereo unspecified), the mutagenic call reads like this: under setting [1], “active; positive”; under setting [2], “active; positive”; under setting [3], “active; positive”; under setting [4], “active; positive”.
As to `Cc1cc(O)c2c(c1)C(=O)c1cccc(O)c1C2=O`, the mutagenic call is, setting by setting: (End Point: IN VITRO CHROMOSOMAL ABERRATIONS, Test System: CHO CELLS, Metabolic Activation: MALE WISTAR RAT, LIVER, S-9) “inactive; negative; tested to limit of solubility”; (End Point: IN VITRO CHROMOSOMAL ABERRATIONS, Test System: CHO CELLS, Metabolic Activation: NONE) “inactive; negative; tested to limit of solubility”; under setting [5], “inactive; negative”; (Test System: AMES SALMONELLA TYPHIMURIUM, Strain/Indicator: TA98, Metabolic Activation: NONE, Method: STANDARD PLATE) “inactive; negative”; (Test System: AMES SALMONELLA TYPHIMURIUM, Strain/Indicator: TA98, Metabolic Activation: RAT, LIVER, S-9, AROCLOR 1254, Method: STANDARD PLATE) “inactive; negative”; (Test System: AMES SALMONELLA TYPHIMURIUM, Strain/Indicator: TA98, Metabolic Activation: RAT, LIVER, S-9, PCB, Method: PREINCUBATION) “inactive; negative”. Also, the mutagenic call under setting [6] was “inactive; negative”; the mutagenic call under setting [1] is “inactive; negative”; the mutagenic call under setting [2] was “inactive; negative”; the mutagenic call (Test System: AMES SALMONELLA TYPHIMURIUM, Strain/Indicator: TA100, Metabolic Activation: RAT, LIVER, S-9, PCB, Method: PREINCUBATION) is “inactive; negative”; the mutagenic call under setting [7] is “active; positive”; the mutagenic call (Test System: AMES SALMONELLA TYPHIMURIUM, Strain/Indicator: TA102, Metabolic Activation: RAT, LIVER, S-9, Method: PREINCUBATION) is “active; positive”. In addition, the mutagenic call under setting [3] is “inactive; negative”; the mutagenic call under setting [4] is “inactive; negative”; the mutagenic call (Test System: AMES SALMONELLA TYPHIMURIUM, Strain/Indicator: TA1537, Metabolic Activation: RAT, LIVER, S-9, AROCLOR 1254, Method: STANDARD PLATE) is “active; positive”; the mutagenic call (Test System: AMES SALMONELLA TYPHIMURIUM, Strain/Indicator: TA1537, Metabolic Activation: RAT, LIVER, S-9, Method: PREINCUBATION) is “active; positive”; the mutagenic call (Test System: AMES SALMONELLA TYPHIMURIUM, Strain/Indicator: TA1538, Metabolic Activation: NONE, Method: STANDARD PLATE) is “inactive; negative”; the mutagenic call (Test System: AMES SALMONELLA TYPHIMURIUM, Strain/Indicator: TA1538, Metabolic Activation: RAT, LIVER, S-9, AROCLOR 1254, Method: STANDARD PLATE) is “inactive; negative”.
As to `CSSC`, the mutagenic call reads like this: under setting [5], “inactive; negative”; (Test System: AMES SALMONELLA TYPHIMURIUM, Strain/Indicator: TA98, Metabolic Activation: RAT, LIVER, S-9, AROCLOR 1254, Method: PREINCUBATION) “inactive; negative”; under setting [6], “inactive; negative”; (Test System: AMES SALMONELLA TYPHIMURIUM, Strain/Indicator: TA100, Metabolic Activation: RAT, LIVER, S-9, AROCLOR 1254, Method: PREINCUBATION) “inactive; negative”; under setting [7], “inactive; negative”; (Test System: AMES SALMONELLA TYPHIMURIUM, Strain/Indicator: TA102, Metabolic Activation: RAT, LIVER, S-9, AROCLOR 1254, Method: PREINCUBATION) “inactive; negative”.
As to `C[C@H]1COc2c(C3(N)CC3)c(F)cc3c(=O)c(C(=O)O)cn1c23`, the mutagenic call is “inactive; negative” under setting [5]; “inactive; negative” (Test System: AMES SALMONELLA TYPHIMURIUM, Strain/Indicator: TA98, Metabolic Activation: RAT, LIVER, S-9, PHENOBARBITAL AND 5,6-BENZOFLAVONE, Method: PREINCUBATION); “inactive; negative” under setting [6]; “inactive; negative” (Test System: AMES SALMONELLA TYPHIMURIUM, Strain/Indicator: TA100, Metabolic Activation: RAT, LIVER, S-9, PHENOBARBITAL AND 5,6-BENZOFLAVONE, Method: PREINCUBATION); “inactive; negative” (Test System: AMES SALMONELLA TYPHIMURIUM, Strain/Indicator: TA1535, Metabolic Activation: NONE, Method: PREINCUBATION); “inactive; negative” (Test System: AMES SALMONELLA TYPHIMURIUM, Strain/Indicator: TA1535, Metabolic Activation: RAT, LIVER, S-9, PHENOBARBITAL AND 5,6-BENZOFLAVONE, Method: PREINCUBATION). In addition, the mutagenic call is, setting by setting: (Test System: AMES SALMONELLA TYPHIMURIUM, Strain/Indicator: TA1537, Metabolic Activation: NONE, Method: PREINCUBATION) “inactive; negative”; (Test System: AMES SALMONELLA TYPHIMURIUM, Strain/Indicator: TA1537, Metabolic Activation: RAT, LIVER, S-9, PHENOBARBITAL AND 5,6-BENZOFLAVONE, Method: PREINCUBATION) “inactive; negative”; (Test System: E. COLI, Strain/Indicator: WP2 UVRA, Metabolic Activation: NONE, Method: PREINCUBATION) “inactive; negative”; (Test System: E. COLI, Strain/Indicator: WP2 UVRA, Metabolic Activation: RAT, LIVER, S-9, PHENOBARBITAL AND 5,6-BENZOFLAVONE, Method: PREINCUBATION) “inactive; negative”.
